Literature values as cited in patent US11530415B2, “Genetically engineered Streptomyces capable of thaxtomin production in the absence of thaxtomin-inducing conditions and methods of producing thaxtomin” (University of Florida Research Foundation, Inc., priority 2017, dated 2022).

System: cellulose biosynthesis
Details: background statement, no method given

## CN1C(=O)[C@](O)(Cc2cccc(O)c2)N(C)C(=O)[C@@H]1Cc1c[nH]c2cccc([N+](=O)[O-])c12 [Thaxtomin A, thaxtomin A]
  potency in inhibiting cellulose biosynthesis: excellent potency (in an nM range)
